Test results reported in the supplement of paper PMC10307832.

What was measured:
Test in all cases: relative viability (nuclei count vs DMSO), 5 days (fraction); higher = more cells survive
Nelarabine + Dasatinib = compound: COc1nc(N)nc2c1ncn2[C@@H]1O[C@H](CO)[C@@H](O)[C@@H]1O [Nelarabine] + Cc1nc(Nc2ncc(C(=O)Nc3c(C)cccc3Cl)s2)cc(N2CCN(CCO)CC2)n1 [Dasatinib] (partner 0.075 µM)
In short: (§1)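 Relative viability is defined as nuclei in treated wells over nuclei in vehicle wells. Duplicate plates were run and medians reported. Lung cancer cell lines in 1536-well plates were dosed by pin tool one day after seeding, with one drug or with a fixed anchor-drug dose plus five library-drug doses (not always all listed) in √10 steps, and nuclei were counted after 5 days.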

Nelarabine + Decitabine = compound: COc1nc(N)nc2c1ncn2[C@@H]1O[C@H](CO)[C@@H](O)[C@@H]1O [Nelarabine] + Nc1ncn([C@H]2C[C@H](O)[C@@H](CO)O2)c(=O)n1 [Decitabine] (partner 2 µM)
In short: as §1

Nelarabine + Vorinostat = compound: COc1nc(N)nc2c1ncn2[C@@H]1O[C@H](CO)[C@@H](O)[C@@H]1O [Nelarabine] + O=C(CCCCCCC(=O)Nc1ccccc1)NO [Vorinostat] (partner 1 µM)
In short: as §1

Adavosertib + Vorinostat = compound: C=CCn1c(=O)c2cnc(Nc3ccc(N4CCN(C)CC4)cc3)nc2n1-c1cccc(C(C)(C)O)n1 [Adavosertib] + O=C(CCCCCCC(=O)Nc1ccccc1)NO [Vorinostat] (partner 1 µM)
In short: as §1

Cell Line	relative viability (Nelarabine + Dasatinib; first compound 0.01 µM)	relative viability (Nelarabine + Dasatinib; first compound 0.03162 µM)	relative viability (Nelarabine + Dasatinib; first compound 0.1 µM)	relative viability (Nelarabine + Dasatinib; first compound 0.3162 µM)	relative viability (Nelarabine + Dasatinib; first compound 1 µM)	relative viability (Nelarabine + Decitabine; first compound 0.01 µM)	relative viability (Nelarabine + Decitabine; first compound 0.03162 µM)	relative viability (Nelarabine + Decitabine; first compound 0.1 µM)	relative viability (Nelarabine + Decitabine; first compound 0.3162 µM)	relative viability (Nelarabine + Decitabine; first compound 1 µM)	relative viability (Nelarabine + Vorinostat; first compound 0.01 µM)	relative viability (Nelarabine + Vorinostat; first compound 0.03162 µM)	relative viability (Nelarabine + Vorinostat; first compound 0.1 µM)	relative viability (Nelarabine + Vorinostat; first compound 0.3162 µM)	relative viability (Nelarabine + Vorinostat; first compound 1 µM)	relative viability (Adavosertib + Vorinostat; first compound 0.01 µM)	relative viability (Adavosertib + Vorinostat; first compound 0.03162 µM)	relative viability (Adavosertib + Vorinostat; first compound 0.1 µM)	relative viability (Adavosertib + Vorinostat; first compound 0.3162 µM)
NCI-H727	0.318	0.418	0.295	0.249	0.44	0.819	0.938	0.918	0.769	0.463	1.24	1.17	1.13	1.27	1.19	0.934	1.13	1.13	1.15
NCI-H2085	0.231	0.26	0.177	0.192	0.199	0.536	0.535	0.52	0.605	0.439	0.788	0.814	0.77	0.819	0.816	0.782	0.807	0.765	0.649
A-427	0.721	0.662	0.753	0.736	0.789	0.551	0.576	0.476	0.528	0.535	0.856	0.93	0.895	0.854	0.844	0.872	0.865	0.831	0.705
LC-2-ad	0.556	0.647	0.463	0.529	0.611	0.904	0.865	0.757	0.932	0.73	0.814	0.738	0.67	0.721	0.676	0.708	0.661	0.736	0.704
LU99A	0.522	0.506	0.36	0.51	0.797	1.02	0.91	0.971	0.886	0.935	0.615	0.417	0.579	0.467	0.39	0.485	0.486	0.462	0.307
201T	0.602	0.57	0.429	0.577	0.625	0.869	0.871	0.837	0.896	0.829	1.2	1.04	0.999	1.03	0.979	0.953	1.01	0.95	1.05
NCI-H650	0.501	0.48	0.417	0.51	0.468	0.305	0.277	0.333	0.28	0.33	0.415	0.376	0.4	0.479	0.499	0.367	0.428	0.443	0.333
NCI-H2023	0.825	0.59	0.382	0.62	0.66	0.239	0.207	0.241	0.223	0.219	0.793	0.821	0.525	0.71	0.687	0.671	0.494	0.348	0.16
LK-2	0.337		0.216	0.352	0.266	0.261		0.272	0.341	0.319	0.242	0.256	0.334	0.294	0.283	0.265	0.362	0.351	0.306
BEN	0.296	0.308	0.353	0.386	0.298	0.729	0.762	0.712	0.79	0.744	0.662	0.575	0.592	0.609	0.618	0.628	0.553	0.669	0.592
EPLC-272H	0.323	0.361	0.129	0.401	0.29	0.435	0.316	0.288	0.326	0.377	0.313	0.411	0.459	0.387	0.385	0.384	0.481	0.281	0.14
NCI-H1975	0.431	0.343	0.316	0.434	0.462	0.391	0.336	0.426	0.418	0.431	0.87	0.7	0.778	0.796	0.76	0.973	0.676	0.676	0.571
HCC-827	0.431	0.241	0.166	0.295	0.361	0.24	0.315	0.306	0.355	0.289	0.595	0.748	0.639	0.721	0.64	0.716	0.868	0.873	0.885
LCLC-97TM1	1.03	0.506	0.779	0.95	0.806			0.274	0.279	0.241			0.464	0.819	0.713	0.809	0.71	0.77	0.573
NCI-H2126	0.701	0.55	0.43	0.692	0.639	0.658	0.616	0.563	0.594	0.559	0.945	0.803	0.689	0.691	0.816	0.738	0.759	0.781	0.789
PC-14	0.253	0.233	0.131	0.304	0.315	0.225	0.231	0.202	0.219	0.224	0.832	0.736	0.662	0.578	0.691	0.841	0.85	0.638	0.183
NCI-H1355	0.849	0.573	0.564	0.744	0.706	0.359	0.347	0.368	0.37	0.382	0.665	0.673	0.544	0.679	0.705	0.609	0.649	0.679	0.568
NCI-H460	0.66	0.601	0.452	0.64	0.495	0.707	0.726	0.476	0.525	0.539	1.42	1.5	0.889	1.13	0.923	0.712	0.702	0.906	0.355

Cell Line	relative viability (Nelarabine + Dasatinib; first compound 0.01 µM)	relative viability (Nelarabine + Dasatinib; first compound 0.03162 µM)	relative viability (Nelarabine + Dasatinib; first compound 0.1 µM)	relative viability (Nelarabine + Dasatinib; first compound 0.3162 µM)	relative viability (Nelarabine + Dasatinib; first compound 1 µM)	relative viability (Nelarabine + Decitabine; first compound 0.01 µM)	relative viability (Nelarabine + Decitabine; first compound 0.03162 µM)	relative viability (Nelarabine + Decitabine; first compound 0.1 µM)	relative viability (Nelarabine + Decitabine; first compound 0.3162 µM)	relative viability (Nelarabine + Decitabine; first compound 1 µM)	relative viability (Nelarabine + Vorinostat; first compound 0.01 µM)	relative viability (Nelarabine + Vorinostat; first compound 0.03162 µM)	relative viability (Nelarabine + Vorinostat; first compound 0.1 µM)	relative viability (Nelarabine + Vorinostat; first compound 0.3162 µM)	relative viability (Nelarabine + Vorinostat; first compound 1 µM)	relative viability (Adavosertib + Vorinostat; first compound 0.01 µM)	relative viability (Adavosertib + Vorinostat; first compound 0.03162 µM)	relative viability (Adavosertib + Vorinostat; first compound 0.1 µM)	relative viability (Adavosertib + Vorinostat; first compound 0.3162 µM)
NCI-H1651	0.4	0.372	0.387	0.355	0.368	0.487	0.725	0.61	0.648	0.527	0.487	0.591	0.525	0.566	0.553	0.524	0.626	0.567	0.538
NCI-H522	0.863	0.866	1.07	0.801	0.993	0.724	0.763	0.608	0.684	0.558	1.02	0.857	0.683	0.867	0.934	0.875	0.968	1.02	0.871
NCI-H1650	0.265	0.329	0.27	0.305	0.329	0.392	0.447	0.484	0.478	0.333	0.61	0.53	0.524	0.549	0.681	0.63	0.731	0.485	0.389
NCI-H1734	0.559	0.411	0.418	0.527	0.532	0.551	0.458	0.491	0.486	0.499	0.839	0.704	0.772	0.766	0.892	0.923	0.865	0.622	0.33
NCI-H661	1	0.913	0.953	0.934	0.853	0.625	0.614	0.599	0.628	0.515	0.862	0.951	0.702	0.761	0.727	0.847	0.809	0.764	0.351
H3255		0.427	0.367	0.345	0.309	0.712	0.563	0.574	0.64	0.632	0.904	0.786	0.777	0.961	0.8	0.763	0.908	0.828	1
NCI-H596	0.752	0.571	0.488	0.581	0.666	1.09	0.972	1.06	1.09	1.13	0.546	0.608	0.613	0.671	0.661	0.691	0.637	0.613	0.415
NCI-H1437	0.554	0.468	0.304	0.466	0.362	0.627	0.651	0.568	0.634	0.557	0.992	0.946	0.831	0.878	0.808	0.985	0.784	0.936	0.816
LCLC-103H	0.458	0.45	0.342	0.499	0.471	0.924	0.716	0.809	0.759	0.638	0.905	0.76	0.795	0.856	0.808	0.834	0.78	0.755	0.739
NCI-H2347	0.328	0.306	0.252	0.289	0.308	0.576	0.596	0.615	0.626	0.593	0.584	0.69	0.569	0.61	0.455	0.548	0.71	0.615	0.533
NCI-H3122	1.08	0.661		0.81	0.948	0.419	0.299		0.463	0.476	1.38	0.833		1.17	1.02	0.991	0.942	0.857	0.992
NCI-H1793	0.458	0.398	0.416	0.426	0.409	0.291		0.535	0.595	0.513	1.05		0.885	0.987	0.784	0.695	0.739	0.581	0.745
NCI-H358	0.17	0.144	0.148	0.145	0.154	0.219	0.214	0.171	0.215	0.219	0.852	1.02	0.663	0.791	0.617	0.622	0.597	0.637	0.219
NCI-H2342	0.324	0.302	0.282	0.346	0.29	0.758	0.759	0.703	0.775	0.734	0.933	0.753	0.806	0.74	0.728	0.679	0.833	0.741	0.864
HOP-62	0.635	0.636	0.395	0.764	0.738	0.214	0.194	0.23	0.182	0.229	0.783	0.618	0.669	0.708	0.638	0.689	0.653	0.733	0.62
NCI-H1944	0.211	0.213	0.196	0.185	0.194	0.423	0.449	0.457	0.416	0.427	0.669	0.549	0.54	0.559	0.538	0.541	0.531	0.563	0.369
NCI-H838	0.276	0.217	0.225	0.321	0.374	0.54	0.432	0.473	0.513	0.466	0.861	0.79	0.759	0.755	0.73	0.706	0.694	0.701	0.67
